In the NIST ThermoML archive (doi:10.1016/j.jct.2012.03.031):

Assay: molar heat capacity at constant pressure
Details: 101.33 kPa

CCCCc1ccc(C(=O)Oc2ccc(C#N)c(F)c2)cc1 [4-cyano-3-fluorophenyl 4-butylbenzoate]
Details | molar heat capacity at constant pressure [J/K/mol]
30 K, Crystal 1, Vacuum adiabatic calorimetry | 47.75
30 K, Crystal 2, Vacuum adiabatic calorimetry | 51.82
30.38 K, Crystal 1, Small (less than 1 g) adiabatic calorimetry | 48.59
30.97 K, Crystal 1, Small (less than 1 g) adiabatic calorimetry | 49.89
31.27 K, Crystal 2, Small (less than 1 g) adiabatic calorimetry | 54.58
32.25 K, Crystal 1, Small (less than 1 g) adiabatic calorimetry | 52.59
32.3 K, Crystal 1, Small (less than 1 g) adiabatic calorimetry | 52.61
32.73 K, Crystal 2, Small (less than 1 g) adiabatic calorimetry | 57.73
33.42 K, Crystal 1, Small (less than 1 g) adiabatic calorimetry | 55.02
34.08 K, Crystal 2, Small (less than 1 g) adiabatic calorimetry | 60.65
34.18 K, Crystal 1, Small (less than 1 g) adiabatic calorimetry | 56.62
34.66 K, Crystal 1, Small (less than 1 g) adiabatic calorimetry | 57.7
35.58 K, Crystal 2, Small (less than 1 g) adiabatic calorimetry | 63.81
35.96 K, Crystal 1, Small (less than 1 g) adiabatic calorimetry | 60.42
36.15 K, Crystal 1, Small (less than 1 g) adiabatic calorimetry | 60.78
37.11 K, Crystal 2, Small (less than 1 g) adiabatic calorimetry | 67
37.29 K, Crystal 1, Small (less than 1 g) adiabatic calorimetry | 63.17
38.18 K, Crystal 1, Small (less than 1 g) adiabatic calorimetry | 64.88
38.66 K, Crystal 1, Small (less than 1 g) adiabatic calorimetry | 65.91
38.66 K, Crystal 2, Small (less than 1 g) adiabatic calorimetry | 70.19
40 K, Crystal 1, Vacuum adiabatic calorimetry | 68.45
40 K, Crystal 2, Vacuum adiabatic calorimetry | 72.67
40.05 K, Crystal 1, Small (less than 1 g) adiabatic calorimetry | 68.62
40.1 K, Crystal 2, Small (less than 1 g) adiabatic calorimetry | 72.86
40.24 K, Crystal 1, Small (less than 1 g) adiabatic calorimetry | 68.92
41.44 K, Crystal 2, Small (less than 1 g) adiabatic calorimetry | 75.41
41.46 K, Crystal 1, Small (less than 1 g) adiabatic calorimetry | 71.35
42.21 K, Crystal 1, Small (less than 1 g) adiabatic calorimetry | 72.67
42.84 K, Crystal 2, Small (less than 1 g) adiabatic calorimetry | 78.05
42.89 K, Crystal 1, Small (less than 1 g) adiabatic calorimetry | 74.07
44.12 K, Crystal 1, Small (less than 1 g) adiabatic calorimetry | 76.27
44.27 K, Crystal 2, Small (less than 1 g) adiabatic calorimetry | 80.76
44.33 K, Crystal 1, Small (less than 1 g) adiabatic calorimetry | 76.76
45.76 K, Crystal 2, Small (less than 1 g) adiabatic calorimetry | 83.54
45.77 K, Crystal 1, Small (less than 1 g) adiabatic calorimetry | 79.44
46.11 K, Crystal 1, Small (less than 1 g) adiabatic calorimetry | 79.97
47.22 K, Crystal 1, Small (less than 1 g) adiabatic calorimetry | 82.08
47.31 K, Crystal 2, Small (less than 1 g) adiabatic calorimetry | 86.36
48.17 K, Crystal 1, Small (less than 1 g) adiabatic calorimetry | 83.7
48.67 K, Crystal 1, Small (less than 1 g) adiabatic calorimetry | 84.74
48.88 K, Crystal 2, Small (less than 1 g) adiabatic calorimetry | 89.17
50 K, Crystal 1, Vacuum adiabatic calorimetry | 86.93
50 K, Crystal 2, Vacuum adiabatic calorimetry | 91.14
50.13 K, Crystal 1, Small (less than 1 g) adiabatic calorimetry | 87.32
50.27 K, Crystal 1, Small (less than 1 g) adiabatic calorimetry | 87.41
50.47 K, Crystal 2, Small (less than 1 g) adiabatic calorimetry | 91.97
51.6 K, Crystal 1, Small (less than 1 g) adiabatic calorimetry | 89.81
52.07 K, Crystal 2, Small (less than 1 g) adiabatic calorimetry | 94.74
52.41 K, Crystal 1, Small (less than 1 g) adiabatic calorimetry | 91.07
53.06 K, Crystal 1, Small (less than 1 g) adiabatic calorimetry | 92.27
53.69 K, Crystal 2, Small (less than 1 g) adiabatic calorimetry | 97.39
54.53 K, Crystal 1, Small (less than 1 g) adiabatic calorimetry | 94.7
54.59 K, Crystal 1, Small (less than 1 g) adiabatic calorimetry | 94.68
55.31 K, Crystal 2, Small (less than 1 g) adiabatic calorimetry | 100.11
56.01 K, Crystal 1, Small (less than 1 g) adiabatic calorimetry | 97.07
56.79 K, Crystal 1, Small (less than 1 g) adiabatic calorimetry | 98.21
56.94 K, Crystal 2, Small (less than 1 g) adiabatic calorimetry | 102.73
57.48 K, Crystal 1, Small (less than 1 g) adiabatic calorimetry | 99.44
58.59 K, Crystal 2, Small (less than 1 g) adiabatic calorimetry | 105.37
58.96 K, Crystal 1, Small (less than 1 g) adiabatic calorimetry | 101.75
58.97 K, Crystal 1, Small (less than 1 g) adiabatic calorimetry | 101.63
60 K, Crystal 1, Vacuum adiabatic calorimetry | 103.22
60 K, Crystal 2, Vacuum adiabatic calorimetry | 107.66
60.24 K, Crystal 2, Small (less than 1 g) adiabatic calorimetry | 108.04
60.44 K, Crystal 1, Small (less than 1 g) adiabatic calorimetry | 104.07
61.09 K, Crystal 1, Small (less than 1 g) adiabatic calorimetry | 104.91
61.9 K, Crystal 2, Small (less than 1 g) adiabatic calorimetry | 110.62
